Results reported in article PMC9599461, “Stereoselectivity in the Membrane Transport of Phenylethylamine Derivatives by Human Monoamine Transporters and Organic Cation Transporters 1, 2, and 3” (Biomolecules, 2022).
Where “and” joins values, the source holds several entries; their conditions need not be identical. Identical values can stand only once.

Assays:
[1] = target: T1, SERT (Homo sapiens, UniProt P31645);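 also: uptake into HEK293 cells stably expressing human SERT over 2 min, enantiomers measured in cell lysate by chiral HPLC-MS/MS, normalized to total protein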
T1 sequence (P31645 whole entry): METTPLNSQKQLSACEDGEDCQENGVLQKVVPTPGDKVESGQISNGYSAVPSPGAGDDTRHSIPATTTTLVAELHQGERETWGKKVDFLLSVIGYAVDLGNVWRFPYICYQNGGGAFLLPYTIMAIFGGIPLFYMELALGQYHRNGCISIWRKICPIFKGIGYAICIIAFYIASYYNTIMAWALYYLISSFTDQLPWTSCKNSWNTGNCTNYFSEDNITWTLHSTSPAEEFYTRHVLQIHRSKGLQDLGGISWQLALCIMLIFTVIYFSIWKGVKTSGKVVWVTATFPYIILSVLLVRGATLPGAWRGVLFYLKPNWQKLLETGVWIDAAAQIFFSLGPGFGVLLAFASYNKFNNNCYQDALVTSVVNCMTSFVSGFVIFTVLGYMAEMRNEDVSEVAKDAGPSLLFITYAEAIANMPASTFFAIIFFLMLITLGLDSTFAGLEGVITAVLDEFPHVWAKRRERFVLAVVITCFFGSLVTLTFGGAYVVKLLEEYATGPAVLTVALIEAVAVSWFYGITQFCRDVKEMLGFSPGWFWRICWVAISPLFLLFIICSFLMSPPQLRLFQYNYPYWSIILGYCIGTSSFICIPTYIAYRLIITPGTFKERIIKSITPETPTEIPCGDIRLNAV
Method: (§1) All transport experiments were carried out in HEK293 cells stably overexpressing human MATs or OCTs. […] All cells were regularly cultivated in DMEM supplemented with 10% (v/v) FCS, penicillin (100 U/mL) and streptomycin (100 μg/mL)and kept in culture for no longer than 30 passages.
(§2) For the uptake experiments, 300,000 cells were plated in poly-D-lysine precoated 24-well plates 48 h ahead of the transport experiment. On the day of experiment, cells were initially washed once with 37 °C pre-warmed HBSS+ (Hanks buffered salt solution supplemented with 10 mM HEPES) and subsequently incubated with the substrates dissolved in pre-warmed HBSS+ for exactly two minutes. Incubation was stopped by adding ice-cold HBSS+ followed by two washing steps. After this, cells were lysed with 80% acetonitrile containing 10 ng/mL milnacipran as internal standard for high-performance liquid chromatography coupled to tandem mass spectrometry (HPLC-MS/MS) analysis. For every experiment, two additional wells per cell line were lysed using RIPA buffer for protein quantification. Total protein was quantified using the bicinchoninic acid assay [42]. This was later used for normalization of the uptake data.
(§3) Intracellularly accumulated test substances were quantified by HPLC-MS/MS analysis using a Shimadzu Nexera HPLC system with a SIL-30AC autosampler, a CTO-20AC column oven, a LC-30AD pump, and a CBM-20A controller (Shimadzu, Kyoto, Japan). […] CBH HPLC column (100 × 3 mm inner dimension with 5 μM particle size; Sigma-Aldrich, Darmstadt, Germany) with a corresponding 10 × 3 mm guard column. Reversed phased chromatography was carried out using an ammonium acetate (NH4Ac) buffered aqueous mobile phase with isopropyl alcohol (IPA) as organic solvent. […] The order of elution of the enantiomers was obtained from available reference literature [43] or by applying enantiopure reference compounds to the chiral HPLC.
(§4) Detection was performed with an API 4000 tandem mass spectrometer (AB SCIEX, Darmstadt, Germany) operating in multiple-reaction-monitoring mode. Quantification was performed using the Analyst 1.6.2 software (AB SCIEX, Darmstadt, Germany) and quantified by comparison to standard curves with known concentrations.
(§5) All uptake data were normalized to protein content to account for variation in the number of seeded sells. Transporter-mediated net uptake was calculated by subtracting uptake into empty vector-transfected control cells from uptake into transporter-transfected cells. […] Vmax refers to the maximum transport velocity and Km is defined as the substance concentration required to reach half of vmax. The intrinsic clearance Clint was calculated as the quotient of vmax over Km.

[2] = target: T1, SERT; experiment: in vitro
Method: as §1, §2, §3, §4, §5

[3] = system: OCT2 wild-type versus A270S variant; experiment: in vitro; details: human, Transporter selectivity, OCT2 wild-type versus A270S, 100 μM racemic substance, two minutes; given as for WT
[4] = target: NET (Homo sapiens, UniProt P23975); experiment: Stereoselective uptake into NET-overexpressing HEK293 cells;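 also: intracellular enantiomers quantified in cell lysates by chiral HPLC-MS/MS after a 2 min substrate incubation, with uptake normalized to total cellular protein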
Sequence of NET (P23975 whole entry): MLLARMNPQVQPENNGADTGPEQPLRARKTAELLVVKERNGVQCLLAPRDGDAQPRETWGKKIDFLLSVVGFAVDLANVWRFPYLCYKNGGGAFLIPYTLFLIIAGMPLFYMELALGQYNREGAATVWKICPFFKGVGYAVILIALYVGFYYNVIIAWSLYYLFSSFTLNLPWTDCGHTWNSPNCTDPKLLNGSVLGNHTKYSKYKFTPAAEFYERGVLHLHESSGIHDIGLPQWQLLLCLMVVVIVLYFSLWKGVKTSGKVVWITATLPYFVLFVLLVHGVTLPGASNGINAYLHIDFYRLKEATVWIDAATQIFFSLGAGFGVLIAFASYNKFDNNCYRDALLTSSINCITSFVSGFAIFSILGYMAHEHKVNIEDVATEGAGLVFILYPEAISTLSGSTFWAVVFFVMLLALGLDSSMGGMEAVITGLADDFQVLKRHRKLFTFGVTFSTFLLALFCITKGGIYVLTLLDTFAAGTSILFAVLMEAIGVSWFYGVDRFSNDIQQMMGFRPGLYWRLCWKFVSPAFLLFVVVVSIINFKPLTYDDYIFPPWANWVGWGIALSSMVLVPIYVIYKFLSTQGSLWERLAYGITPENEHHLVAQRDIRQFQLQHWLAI

[5] = target: DAT (Homo sapiens, UniProt Q01959); experiment: Stereoselective uptake into DAT-overexpressing HEK293 cells;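 also: intracellular accumulation measured by chiral HPLC-MS/MS in stably transfected HEK293 cells, normalized to total protein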
[6] = target: T1, SERT; experiment: Stereoselective uptake into SERT-overexpressing HEK293 cells;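 also: uptake into HEK293 cells stably expressing human SERT over 2 min, enantiomers measured in cell lysate by chiral HPLC-MS/MS, normalized to total protein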
Method: as §1, §2, §3, §4, §5

[7] = target: T2, OCT1 (Homo sapiens, UniProt O15245); experiment: Stereoselective uptake into OCT1-overexpressing HEK293 cells; details: for selectivity ratio at 2 min: human;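 as to all read-outs here: enantiomers quantified inside cells by chiral HPLC-MS/MS, uptake normalized to total protein from bicinchoninic acid assay, substrates applied in HBSS+ buffer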
T2 sequence (O15245 1-554): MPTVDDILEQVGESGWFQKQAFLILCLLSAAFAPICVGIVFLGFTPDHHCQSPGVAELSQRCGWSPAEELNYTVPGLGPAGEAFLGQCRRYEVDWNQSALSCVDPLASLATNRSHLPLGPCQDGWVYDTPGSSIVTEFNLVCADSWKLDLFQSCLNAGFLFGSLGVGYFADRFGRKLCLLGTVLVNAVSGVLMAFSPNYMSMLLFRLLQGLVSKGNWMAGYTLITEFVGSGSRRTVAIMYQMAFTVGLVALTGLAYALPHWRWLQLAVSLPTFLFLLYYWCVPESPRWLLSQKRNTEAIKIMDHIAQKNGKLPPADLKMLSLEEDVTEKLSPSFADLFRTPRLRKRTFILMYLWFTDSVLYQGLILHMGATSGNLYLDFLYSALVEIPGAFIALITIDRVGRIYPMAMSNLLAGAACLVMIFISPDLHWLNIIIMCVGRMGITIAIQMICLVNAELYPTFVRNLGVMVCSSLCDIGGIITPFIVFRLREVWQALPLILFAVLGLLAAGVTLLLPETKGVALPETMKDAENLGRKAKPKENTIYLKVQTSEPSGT

[8] = target: T3, OCT3 (Homo sapiens, UniProt O75751); experiment: Stereoselective uptake into OCT3-overexpressing HEK293 cells;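 also: intracellular accumulation in HEK293 cells measured by chiral HPLC-MS/MS after a 2 min substrate exposure at 37 °C, uptake normalized to total protein (bicinchoninic acid assay)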
T3 sequence (O75751 1-556): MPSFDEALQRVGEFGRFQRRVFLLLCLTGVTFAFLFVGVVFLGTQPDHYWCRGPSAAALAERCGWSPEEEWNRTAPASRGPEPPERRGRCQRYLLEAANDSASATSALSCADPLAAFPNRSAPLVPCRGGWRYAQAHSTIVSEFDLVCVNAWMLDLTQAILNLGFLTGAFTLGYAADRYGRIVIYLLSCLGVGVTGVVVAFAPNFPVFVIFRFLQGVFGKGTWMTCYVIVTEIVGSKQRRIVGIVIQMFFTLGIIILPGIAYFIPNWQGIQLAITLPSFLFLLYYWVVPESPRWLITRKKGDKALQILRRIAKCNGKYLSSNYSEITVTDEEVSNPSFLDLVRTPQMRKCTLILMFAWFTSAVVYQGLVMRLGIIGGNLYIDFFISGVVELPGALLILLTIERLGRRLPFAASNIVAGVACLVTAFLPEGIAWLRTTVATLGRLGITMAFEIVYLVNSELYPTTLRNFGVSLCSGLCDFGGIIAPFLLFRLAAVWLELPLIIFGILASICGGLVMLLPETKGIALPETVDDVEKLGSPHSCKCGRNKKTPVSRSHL
Method: as §1, §2
Intracellularly accumulated test substances were quantified by HPLC-MS/MS analysis using a Shimadzu Nexera HPLC system with a SIL-30AC autosampler, a CTO-20AC column oven, a LC-30AD pump, and a CBM-20A controller (Shimadzu, Kyoto, Japan). Stereoselective chromatography was carried out on a [sequence] CBH HPLC column (100 × 3 mm inner dimension with 5 μM particle size; Sigma-Aldrich, Darmstadt, Germany) with a corresponding 10 × 3 mm guard column. Reversed phased chromatography was carried out using an ammonium acetate (NH4Ac) buffered aqueous mobile phase with isopropyl alcohol (IPA) as organic solvent. […] The order of elution of the enantiomers was obtained from available reference literature [43] or by applying enantiopure reference compounds to the chiral HPLC. […] Given the structural similarity of the investigated substances and the fact that separation was performed on the same column with almost identical mobile phases, we assume that this order of elution for our compound set is always the (R)- before the (S)-enantiomer.
as §4
All uptake data were normalized to protein content to account for variation in the number of seeded sells. Transporter-mediated net uptake was calculated by subtracting uptake into empty vector-transfected control cells from uptake into transporter-transfected cells. Kinetic parameters were then determined after non-linear regression following the Michaelis–Menten equation (v = vmax × [S]/(Km + [S])) using GraphPad Prism (Version 5.01 for Windows, GraphPad Software, La Jolla, CA, USA). Vmax refers to the maximum transport velocity and Km is defined as the substance concentration required to reach half of vmax. The intrinsic clearance Clint was calculated as the quotient of vmax over Km.

[9] = target: T4, OCT2 (Homo sapiens, UniProt O15244); experiment: Stereoselective uptake into OCT2 (wild-type)-overexpressing HEK293 cells; details: OCT2; for selectivity ratio at 2 min: human, ratio between enantiomers
T4 sequence (O15244 1-555 S270A): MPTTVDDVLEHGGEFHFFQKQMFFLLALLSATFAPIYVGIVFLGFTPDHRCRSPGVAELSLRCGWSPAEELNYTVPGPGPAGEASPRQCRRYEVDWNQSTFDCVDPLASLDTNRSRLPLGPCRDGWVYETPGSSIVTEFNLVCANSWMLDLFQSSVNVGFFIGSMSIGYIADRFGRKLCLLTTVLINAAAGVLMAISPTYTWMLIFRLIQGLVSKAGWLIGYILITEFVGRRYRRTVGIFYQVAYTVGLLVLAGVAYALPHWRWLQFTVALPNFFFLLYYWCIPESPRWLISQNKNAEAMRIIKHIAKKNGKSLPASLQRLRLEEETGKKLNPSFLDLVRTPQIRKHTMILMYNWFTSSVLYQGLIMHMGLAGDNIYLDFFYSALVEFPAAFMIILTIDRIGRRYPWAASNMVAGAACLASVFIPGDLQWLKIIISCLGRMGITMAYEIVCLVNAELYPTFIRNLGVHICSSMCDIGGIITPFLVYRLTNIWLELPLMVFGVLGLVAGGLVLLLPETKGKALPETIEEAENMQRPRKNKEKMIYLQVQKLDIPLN

[10] = system: Alpha-1 adrenoreceptor; details: cited from earlier work
[11] = system: OCT2 A270S variant; experiment: in vitro; details: human, Stereoselectivity OCT2_A270S, 100 μM racemic substance, two minutes; uptake ratio of enantiomers, given as for (R)
[12] = target: T5, OCT2 (Homo sapiens, UniProt O15244, S270A); experiment: Stereoselective uptake into OCT2 (wild-type)-overexpressing HEK293 cells; details: OCT2; ratio between enantiomers, given as for (R) or for 1
T5 sequence (O15244 1-555 S270A): T4 sequence (O15244 1-555 S270A)

[13] = target: T6, OCT2 (wild-type) (Homo sapiens, UniProt O15244); experiment: as above; details: human, Stereoselectivity OCT2_WT, 100 μM racemic substance, two minutes; uptake ratio of enantiomers, given as for (R)
T6 sequence (O15244 1-555 S270A): T4 sequence (O15244 1-555 S270A)

[14] = substrate: CNC[C@@H](O)c1ccc(O)cc1; experiment: cells, lysate or membranes; details: other: HEK293 cells overexpressing human DAT; racemic substrate, two minutes; net uptake minus empty vector control; 37.0 °C;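 also: intracellular accumulation measured by chiral HPLC-MS/MS in stably transfected HEK293 cells, normalized to total protein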
[15] = substrate: NCC(O)c1cccc(O)c1; experiment: cells, lysate or membranes; details: other: HEK293 cells overexpressing human DAT; racemic substrate, two minutes; net uptake minus empty vector control; 37.0 °C;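 as to Clint ± SEM: intracellular accumulation measured by chiral HPLC-MS/MS in stably transfected HEK293 cells, normalized to total protein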
[16] = substrate: NC[C@@H](O)c1ccc(O)cc1; experiment: cells, lysate or membranes; details: other: HEK293 cells overexpressing human DAT; racemic substrate, two minutes; net uptake minus empty vector control; 37.0 °C;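 also: intracellular accumulation measured by chiral HPLC-MS/MS in stably transfected HEK293 cells, normalized to total protein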
[17] = substrate: NC[C@H](O)c1ccc(O)cc1; experiment: cells, lysate or membranes; details: other: HEK293 cells overexpressing human DAT; racemic substrate, two minutes; net uptake minus empty vector control; 37.0 °C
[18] = substrate: [H][C@](O)(CNC)c1ccc(O)cc1; experiment: cells, lysate or membranes; details: other: HEK293 cells overexpressing human DAT; racemic substrate, two minutes; net uptake minus empty vector control; 37.0 °C

## CNC[C@@H](O)c1cccc(O)c1 [(S)-Phenylephrine]
[1]
  Clint ± SEM: 11.6
[2]
  selectivity ratio: 2.82
[3]
  selectivity ratio at 2 min, 100 μM: 1.13
[4]; HEK293 cells overexpressing human NET, racemic substrate, two minutes, net uptake
  Vmax ± SEM: 220 pmol × mg Protein^−1 × min^−1
[4]; NET, quotient of vmax over Km
  Clint ± SEM: 52.3 mL × g Protein^−1 × min^−1
[4]; NET, ratio between enantiomers, given as for (R) or for 1
  Stereoselectivity Vmax: 1.79 fold
[4]; human
  selectivity ratio at 2 min: 1.43
[4]; read-out: Km ± SEM, HEK293 cells overexpressing human NET, racemic substrate, two minutes, net uptake minus empty vector control
  Km: 4.16 µM
[5]; DAT, quotient of vmax over Km
  Clint ± SEM: 11.6 mL × g Protein^−1 × min^−1
[5]; DAT, ratio between enantiomers, given as for (R) or for 1
  Stereoselectivity Vmax: 1.56 fold
[5]; DAT, ratio between enantiomers, given as for (R) or for 1 (first-eluting)
  Stereoselectivity Km: 1.06 fold
[5]; HEK293 cells overexpressing human DAT, racemic substrate, two minutes, net uptake
  Vmax ± SEM: 392 pmol × mg Protein^−1 × min^−1
[5]; human
  selectivity ratio at 2 min: 1.48
[5]; read-out: Km ± SEM, HEK293 cells overexpressing human DAT, racemic substrate, two minutes, net uptake minus empty vector control
  Km: 33.7 µM
[6]
  Stereoselectivity Km: 1.89 fold
  Stereoselectivity Vmax: 1.49 fold
  Vmax ± SEM: 529
[6]; read-out: Km ± SEM, HEK293 cells overexpressing human SERT, racemic substrate, two minutes, net uptake minus empty vector control
  Km: 173 µM
[7]; OCT1, quotient of vmax over Km
  Clint ± SEM: 8.85 mL × g Protein^−1 × min^−1
[7]; Stereoselectivity ClInt
  selectivity ratio at 2 min: 1.11
[7]; Stereoselectivity Km, OCT1, ratio between enantiomers, given as for (S) or for 2 (second-eluting)
  selectivity ratio at 2 min: 1.02
[7]; Stereoselectivity Vmax, OCT1, ratio between enantiomers, given as for (R) or for 1
  selectivity ratio at 2 min: 1.08
[8]; OCT3, quotient of vmax over Km
  Clint ± SEM: 4.23 mL × g Protein^−1 × min^−1
[8]; OCT3, ratio between enantiomers, given as for (R) or for 1
  Stereoselectivity Vmax: 3.33 fold
[8]; OCT3, ratio between enantiomers, given as for (R) or for 1 (first-eluting)
  Stereoselectivity Km: 1.19 fold
[8]; human
  selectivity ratio at 2 min: 2.79
[9]; quotient of vmax over Km
  Clint ± SEM: 27.3 mL × g Protein^−1 × min^−1
[9]; Stereoselectivity ClInt, given as for (S) or for 2
  selectivity ratio at 2 min: 1.02
[9]; Stereoselectivity Km, given as for (R) or for 1 (first-eluting)
  selectivity ratio at 2 min: 1.89
[9]; Stereoselectivity Vmax, given as for (R) or for 1
  selectivity ratio at 2 min: 2.04

## NC[C@H](O)c1ccc(O)c(O)c1 [Norepinephrine]
[10]
  Enantiomeric Activity Ratio (R/S) in Receptor Binding Alpha-1: 33
[11]
  selectivity ratio at 2 min, 100 μM: 2.06
[12]
  Stereoselectivity Vmax: approximately two-fold
[13]
  selectivity ratio at 2 min, 100 μM: 2.05

## CNCC(O)c1ccc(O)cc1 (centres unmarked) [Synephrine]
[10]
  Enantiomeric Activity Ratio (R/S) in Receptor Binding Alpha-1: 75
[11]
  selectivity ratio at 2 min, 100 μM: 1
[13]
  selectivity ratio at 2 min, 100 μM: 1.17

B1: DAT (Homo sapiens) (protein)
chain: MSKSKCSVGLMSSVVAPAKEPNAVGPKEVELILVKEQNGVQLTSSTLTNPRQSPVEAQDRETWGKKIDFLLSVIGFAVDLANVWRFPYLCYKNGGGAFLVPYLLFMVIAGMPLFYMELALGQFNREGAAGVWKICPILKGVGFTVILISLYVGFFYNVIIAWALHYLFSSFTTELPWIHCNNSWNSPNCSDAHPGDSSGDSSGLNDTFGTTPAAEYFERGVLHLHQSHGIDDLGPPRWQLTACLVLVIVLLYFSLWKGVKTSGKVVWITATMPYVVLTALLLRGVTLPGAIDGIRAYLSVDFYRLCEASVWIDAATQVCFSLGVGFGVLIAFSSYNKFTNNCYRDAIVTTSINSLTSFSSGFVVFSFLGYMAQKHSVPIGDVAKDGPGLIFIIYPEAIATLPLSSAWAVVFFIMLLTLGIDSAMGGMESVITGLIDEFQLLHRHRELFTLFIVLATFLLSLFCVTNGGIYVFTLLDHFAAGTSILFGVLIEAIGVAWFYGVGQFSDDIQQMTGQRPSLYWRLCWKLVSPCFLLFVVVVSIVTFRPPHYGAYIFPDWANALGWVIATSSMAMVPIYAAYKFCSLPGSFREKLAYAIAPEKDRELVDRGEVRQFTLRHWLKV
[14]
  Km: 44.7 µM
  Vmax: 463 pmol × mg Protein^−1 × min^−1
[15]
  Km: 15.6 µM and 18.6 µM
  Vmax: 2003 pmol × mg Protein^−1 × min^−1 and 3103 pmol × mg Protein^−1 × min^−1
[16]
  Km: 19.6 µM
  Vmax: 1959 pmol × mg Protein^−1 × min^−1
[17]
  Km: 20.5 µM
  Vmax: 2054 pmol × mg Protein^−1 × min^−1
[18]
  Km: 36.8 µM
  Vmax: 849 pmol × mg Protein^−1 × min^−1
